Experimental data as given in patent publication US3944498A, “Germicidal detergent containing a thienyliodonium salt” (The Dow Chemical Company, priority 1973, dated 1976).

Assays:
A. aerogenes = test: Agar plate kill test with Ivory soap, A. aerogenes; assay type: cell-based; conditions: Ivory soap; for killing at 5 ppm: 5 p.p.m.
Procedure: (§1) Phenyl-2-thienyliodonium chloride, 2,2'-bisthienyliodonium chloride, and, for comparative purposes, diphenyliodonium chloride are individually dispersed in Ivory soap to provide concentrates containing 1 part by weight of iodonium salt to 50 parts by weight of soap. The soap concentrates are serially dispersed and serially diluted with liquid nutrient agar at 42°C. to prepare culture media containing various concentrations of one of the iodonium salts. The culture media are uniformly inoculated with S. aureus and plated in petri dishes. The inoculation is carried out from broth cultures of the named organism containing about 5×10^8 organisms per milliliter in the proportion of one-tenth milliliter of bacterial culture per 20 milliliters of cultur medium containing each test compound. In a check operation, nutrient agar containing the same amount of Ivory soap is similarly inoculated with the same organism. After two days' incubation at 37°C., the plates are examined for microbial growth.
The procedure described above is repeated with varying concentrations of 4-chlorophenyl-2-thienyliodonium chloride, 3,4-dichlorophenyl-2-thienyliodonium chloride, and for comparative purposes bis(4-chlorophenyl)iodonium chloride, phenyl-4-chlorophenyliodonium chloride and bis(2,4-dichlorophenyl)iodoniumchloride in a series of tests wherein the culture media are inoculated individually with the organism A. aerogenes.
The procedure described above is once again repeated with each of 2,2'-bisthienyliodonium chloride, phenyl-2-thienyliodonium chloride, 4-bromophenyl-2-thienyliodonium chloride, bis(4-bromophenyl)iodonium chloride and bis(4-bromophenyl)iodonium bromide in a series of tests wherein the culture media are inoculated individually with the organism A. aerogenes.

S. typhosa [1] = test: Agar plate kill test with Ivory soap, S. typhosa; assay type: cell-based
Procedure: as §1
The procedure described above is again repeated in a series of tests wherein the culture media are inoculated individually with the organism S. typhosa and wherein the culture media contain varying concentrations of one of the iodonium salts, as set forth in following Table II.

S. aureus [2] = test: Agar plate kill test with Ivory soap, S. aureus; assay type: cell-based; conditions: 2 days, 37°C
Procedure: as §1

S. aureus [3] = test: Nutrient agar growth test, S. aureus (Example 3); assay type: cell-based; conditions: 0.001 percent by weight, 2 days, 35°C
Excerpt: (§2) The 4-chlorophenyl-2-thienyliodonium chloride, trifluoroacetate and trichloroacetate salts are dispersed in melted nutrient agar to produce culture media containing 0.001 percent by weight of one of the salt compounds. Such melted media are then poured into petri dishes and the solidified surface in each dish inoculated with a 24-hour broth culture, one of the organisms S. aureus and S. typhosa. In a check operation, petri dishes containing unmodified nutrient agar are each individually inoculated in the same manner with the named organisms. After two days' incubation at 35°C. the agar surface in each dish is examined for microbial growth. […] At the time of these observations the check dishes are found to support a heavy growth of the two named organisms.

S. typhosa [4] = test: Nutrient agar growth test, S. typhosa (Example 3); assay type: cell-based; conditions: 0.001 percent by weight, 2 days, 35°C
Excerpt: as §2

S. typhosa [5] = test: Agar dilution MIC in presence of Ivory soap, S. typhosa; assay type: cell-based; conditions: read-out: Minimum growth inhibitory concentration, S. typhosa
Procedure: (§3) The growth-inhibitory activity of the below-indicated compounds against some microorganisms most relevant to the human skin was determined by standard agar dilution techniques to provide the data given in following Table 1.
(§4) In Table 1, the first column gives the chemical structures of the test compounds, while the additional columns give the names of the test organisms and the minimum inhibitory concentration in parts per million (p.p.m.) of the compounds listed for 100% growth inhibition against the particular microorganisms indicated. […] For each p.p.m. of test compound, 50 p.p.m. of Ivory soap was also present in the culture medium for part A of Table 1, while in part B of Table 1, the culture medium was free of any additive other than the test compound. The data for compounds 13 through 16 of part B of Table 1 were taken from Cannon U.S. Pat. No. 3,207,660 while those for compounds 17 and 18 were taken from trade literature.

S. aureus [6] = test: Agar dilution MIC in presence of Ivory soap, S. aureus; assay type: cell-based; conditions: Staphylococcus aureus; read-out: Minimum growth inhibitory concentration, S. aureus
Procedure: as §3, §4

P. aeruginosa [7] = test: Agar dilution MIC in presence of Ivory soap, P. aeruginosa; assay type: cell-based; conditions: Pseudomonas aeruginosa; read-out: Minimum growth inhibitory concentration, P. aeruginosa
Procedure: as §3, §4

[8] = Range-finding median lethal dose (LD50) in mice; conditions: mouse, in vivo; single oral dose in corn oil, 14-day observation
Procedure: The range-finding oral median lethal dose (LD50) for iodonium and other antimicrobial compounds, including diphenyl- and thienyliodonium salts as well as several proprietary products was determined in mice. Compounds 1 through 11 of following Table 2 were fed to five groups of two mice each, the test compound being administered in suspension in corn oil as a single oral dose and the mortality experience of the mice was observed over a 14-day period. Data for compounds 12 through 15 were taken from U.S. Pat. No. 3,207,660, and for compounds 16 through 18 were taken from trade literature.

mice = conditions: cited from earlier work; for Oral LD50 (mice): 12-15 from U.S. Pat. No. 3,207,660, 17, 18 from trade literature
P. aeruginosa [9] = conditions: absence of soap; 13-16 from Cannon U.S. Pat. No. 3,207,660, 17-18 from trade literature; cited from earlier work
S. aureus [10] = conditions: absence of soap; 13-16 from Cannon U.S. Pat. No. 3,207,660, 17-18 from trade literature; cited from earlier work
[11] = Klebsiella aerogenes, 48 h, read-out: Percent Kill of A. aerogenes
[12] = 48 h, read-out: Percent Kill of S. Typhosa
[13] = Klebsiella aerogenes, 48 h, 10 p.p.m., read-out: Percent Kill of A. aerogenes

c1csc([I+]c2cccs2)c1 [2,2'-bisthienyliodonium chloride]
killing at 5 ppm (A. aerogenes; [11]): 100%
killing at 5 ppm (S. typhosa [1]; [12]): 100%
killing at 5 ppm (S. aureus [2]; Staphylococcus aureus, 48 h, 5 p.p.m., read-out: percent kill of S. aureus): 100%

Clc1ccc([I+]c2cccs2)cc1Cl [3,4-dichlorophenyl-2-thienyliodonium chloride]
killing at 1 ppm (A. aerogenes; Klebsiella aerogenes, 48 h, 1 p.p.m., read-out: Percent Kill of A. aerogenes): 100%
killing at 1 ppm (S. typhosa [1]; [12]): 100%

Clc1ccc([I+]c2cccs2)cc1.O=C([O-])C(F)(F)F [4-Chlorophenyl-2-thienyliodonium trifluoroacetate]
microbial growth on agar surface (S. aureus [3]): free of microbial growth
microbial growth on agar surface (S. typhosa [4]): free of microbial growth

Brc1ccc([I+]c2cccs2)cc1 [4-bromophenyl-2-thienyliodonium chloride]
killing at 5 ppm (A. aerogenes; [11]): 100%
killing at 5 ppm (S. typhosa [1]; [12]): 100%

Clc1ccc([I+]c2cccs2)cc1 [4-chlorophenyl-2-thienyliodonium trichloroacetate]
microbial growth on agar surface (S. aureus [3]): free of microbial growth
microbial growth on agar surface (S. typhosa [4]): free of microbial growth

c1ccc([I+]c2ccccc2)cc1 [Compound 1 (Table 1)]
MIC (S. typhosa [5]): > 500 µg/mL
MIC (S. aureus [6]): > 500 µg/mL
MIC (P. aeruginosa [7]): > 500 µg/mL

c1ccc([I+]c2ccccc2)cc1 [Compound 1 (Table 2)]
LD50 [8]: 56.2 mg/kg

c1ccc([I+]c2cccs2)cc1 [Compound 2 (Table 1)]
MIC (S. typhosa [5]): 5 µg/mL
MIC (S. aureus [6]): 5 µg/mL
MIC (P. aeruginosa [7]): 5 µg/mL

c1csc([I+]c2cccs2)c1 [Compound 3 (Table 1)]
MIC (S. typhosa [5]): 0.5 µg/mL
MIC (S. aureus [6]): 0.5 µg/mL
MIC (P. aeruginosa [7]): 5 µg/mL

c1ccc([I+]c2cccs2)cc1 [Compound 3 (Table 2)]
LD50 [8]: 2000 mg/kg

Clc1ccc([I+]c2ccccc2)cc1 [Compound 4 (Table 1)]
MIC (S. typhosa [5]): > 10 µg/mL
MIC (S. aureus [6]): 10 µg/mL
MIC (P. aeruginosa [7]): > 100 µg/mL

c1csc([I+]c2cccs2)c1 [Compound 4 (Table 2)]
LD50 [8]: 500 mg/kg

Clc1ccc([I+]c2ccc(Cl)cc2)cc1 [Compound 5 (Table 1)]
MIC (S. typhosa [5]): 10 µg/mL
MIC (S. aureus [6]): 10 µg/mL
MIC (P. aeruginosa [7]): > 100 µg/mL

Clc1ccc([I+]c2cccs2)cc1 [Compound 5 (Table 2)]
LD50 [8]: > 4000 mg/kg

Clc1ccc([I+]c2cccs2)cc1 [Compound 6 (Table 1)]
MIC (S. typhosa [5]): 1 µg/mL
MIC (S. aureus [6]): 1 µg/mL
MIC (P. aeruginosa [7]): 1 µg/mL

Clc1ccc([I+]c2cccs2)cc1Cl [Compound 6 (Table 2)]
LD50 [8]: 2000 mg/kg

Clc1ccc([I+]c2ccc(Cl)c(Cl)c2)cc1Cl [Compound 7 (Table 1)]
MIC (S. typhosa [5]): > 10 µg/mL
MIC (S. aureus [6]): 5 µg/mL
MIC (P. aeruginosa [7]): > 500 µg/mL

Cc1ccc([I+]c2cccs2)cc1 [Compound 7 (Table 2)]
LD50 [8]: 750 mg/kg

Clc1ccc([I+]c2cccs2)cc1Cl [Compound 8 (Table 1)]
MIC (S. typhosa [5]): 1 µg/mL
MIC (S. aureus [6]): 1 µg/mL
MIC (P. aeruginosa [7]): 1 µg/mL

CCc1ccc([I+]c2cccs2)cc1 [Compound 8 (Table 2)]
LD50 [8]: 1500 mg/kg

CCOc1ccc([I+]c2ccccc2)cc1 [Compound 9 (Table 1)]
MIC (S. typhosa [5]): > 500 µg/mL
MIC (S. aureus [6]): > 500 µg/mL
MIC (P. aeruginosa [7]): > 500 µg/mL

Cc1ccc(C)c([I+]c2cccs2)c1 [Compound 9 (Table 2)]
LD50 [8]: 3000 mg/kg

CCOc1ccc([I+]c2cccs2)cc1 [Compound 10 (Table 1)]
MIC (S. typhosa [5]): 5 µg/mL
MIC (S. aureus [6]): 5 µg/mL
MIC (P. aeruginosa [7]): 50 µg/mL

c1ccc(Oc2ccc([I+]c3cccs3)cc2)cc1 [Compound 10 (Table 2)]
LD50 [8]: 3000 mg/kg

c1ccc(-c2ccc([I+]c3cccs3)cc2)cc1 [Compound 11 (Table 2)]
LD50 [8]: 4000 mg/kg

c1ccc2c(c1)[I+]c1ccccc1-2 [Compound 12 (Table 2)]
Oral LD50 (mice) (mice): 12.5 mg/kg

c1ccc2c(c1)[I+]c1ccccc1-2 [Compound 13 (Table 1)]
Minimum growth inhibitory concentration, P. aeruginosa (P. aeruginosa [9]): 3.13 ppm
Minimum growth inhibitory concentration, S. aureus (S. aureus [10]): 3.13 ppm

c1ccc2c(c1)[I+]c1ccccc1-2 [Compound 13 (Table 2)]
Oral LD50 (mice) (mice): 8.75 ± 0.57 mg/kg

c1ccc2c(c1)[I+]c1ccccc1-2 [Compound 14 (Table 1)]
Minimum growth inhibitory concentration, P. aeruginosa (P. aeruginosa [9]): 5 ppm
Minimum growth inhibitory concentration, S. aureus (S. aureus [10]): 5 ppm

Clc1cccc2c1-c1c(Cl)cccc1[I+]2 [Compound 14 (Table 2)]
Oral LD50 (mice) (mice): 8 to 10 mg/kg

Clc1cccc2c1-c1ccccc1[I+]2 [Compound 15 (Table 1)]
Minimum growth inhibitory concentration, P. aeruginosa (P. aeruginosa [9]): 3.13 ppm
Minimum growth inhibitory concentration, S. aureus (S. aureus [10]): 1.56 ppm

Clc1ccc2c(c1)[I+]c1cc(Cl)ccc1-2 [Compound 15 (Table 2)]
Oral LD50 (mice) (mice): 21.32 ± 3.2 mg/kg

Clc1ccc2c(c1)[I+]c1cc(Cl)ccc1-2 [Compound 16 (Table 1)]
Minimum growth inhibitory concentration, P. aeruginosa (P. aeruginosa [9]): 6.25 ppm
Minimum growth inhibitory concentration, S. aureus (S. aureus [10]): 1.56 ppm

C[CH2][Hg][S]c1ccccc1C(=O)[O-].[Na+] [Merthiolate]
LD50 (mice), subcutaneous (mice; S.C., trade literature): 66 mg/kg

Clc1ccc([I+]c2ccc(Cl)cc2Cl)c(Cl)c1 [bis(2,4-dichlorophenyl)iodonium chloride, bis(2,4-dichlorophenyl)iodoniumchloride, reference compound]
killing at 10 ppm (A. aerogenes; [13]): 0%
killing at 10 ppm (S. typhosa [1]; [12]): 0%

Brc1ccc([I+]c2ccc(Br)cc2)cc1.[Br-] [bis(4-bromophenyl)iodonium bromide, reference compound]
Percent Kill of A. aerogenes (A. aerogenes; 10 p.p.m.): 0%
Percent Kill of S. Typhosa (S. typhosa [1]; 10 p.p.m., Ivory soap): 0%

Brc1ccc([I+]c2ccc(Br)cc2)cc1 [bis(4-bromophenyl)iodonium chloride, reference compound]
killing at 10 ppm (A. aerogenes; [13]): 0%
killing at 10 ppm (S. typhosa [1]; [12]): 0%

Clc1ccc([I+]c2ccc(Cl)cc2)cc1 [bis(4-chlorophenyl)iodonium chloride, reference compound]
killing at 100 ppm (A. aerogenes; Klebsiella aerogenes, 48 h, 100 p.p.m., read-out: Percent Kill of A. aerogenes): 0%

[Cl-].c1ccc([I+]c2ccccc2)cc1 [diphenyliodonium chloride, reference compound]
killing at 500 ppm (S. typhosa [1]; 48 h, 500 p.p.m., Ivory soap, read-out: Percent Kill of S. Typhosa): 0%
growth of S. aureus (S. aureus [2]; 500 p.p.m.): heavy uniform growth

Oc1c(Cl)cc(Cl)c(Cl)c1Cc1c(O)c(Cl)cc(Cl)c1Cl [hexachlorophene]
Oral LD50 (mice) (mice): 161 mg/kg

c1ccc([I+]c2cccs2)cc1 [phenyl-2-thienyliodonium chloride, Phenyl-2-thienyliodonium chloride]
killing at […] (A. aerogenes; Klebsiella aerogenes, 48 h, 2.5 p.p.m., read-out: Percent Kill of A. aerogenes): 100%
killing at […] (S. typhosa [1]; [12]): 100%
killing at […] (S. aureus [2]; Staphylococcus aureus, 48 h, 2.5 p.p.m., read-out: percent kill of S. aureus): 100%

Clc1ccc([I+]c2ccccc2)cc1.[Cl-] [phenyl-4-chlorophenyliodonium chloride, reference compound]
killing at 10 ppm (A. aerogenes; [13]): 0%
LD50 [8]: 68 mg/kg
killing at 10 ppm (S. typhosa [1]; [12]): 0%
